The structures appear in SMILES notation.

What is called EC50 is the concentration needed to bring the measured effect to its halfway point.

What all share (format): cell-based
Assay [1] concerns human dermal fibroblasts from LHON patients. The assay can be described thus: Rescue of fibroblasts from LHON patients from oxidative stress. To be noted: Fibroblast, LHON cells GM03858, screen similar to Example 1, read-out: protection against LHON, EC50.
The test system of assay [2] is human dermal fibroblasts from Parkinson's Disease patients. Briefly: Rescue of fibroblasts from Parkinson's Disease patients from oxidative stress. The settings on record: Fibroblast, PD cells AG20439, screen similar to Example 1, read-out: protection against Parkinson's Disease, EC50.
In assay [3] the test system is human dermal fibroblasts from Huntington's patients. The assay can be described thus: Rescue of fibroblasts from Huntington's patients from oxidative stress. The settings on record: Fibroblast, Huntington's cells GM 04281, screen similar to Example 1, read-out: protection against Huntington's, EC50.
Assay [4] deals with Human dermal fibroblasts from Friedreich's Ataxia patients. Briefly: Rescue of BSO-stressed FRDA fibroblasts (Calcein AM viability). To be noted: FRDA fibroblasts GM04078, 1 mM BSO, 48 h, read-out: protection against FRDA, EC50. How it is done:
Test samples and solvent controls were tested for their ability to rescue FRDA fibroblasts stressed by addition of L-buthionine-(S,R)-sulfoximine (BSO), as described in Jauslin et al., Hum. Mol. Genet. 11(24):3055 (2002), Jauslin et al., FASEB J. 17:1972-4 (2003), and International Patent Application WO 2004/003565. […] This specific BSO-mediated cell death can be prevented by administration of antioxidants or molecules involved in the antioxidant pathway, such as alpha-tocopherol, selenium, or small molecule glutathione peroxidase mimetics. However, antioxidants differ in their potency, i.e. the concentration at which they are able to rescue BSO-stressed FRDA fibroblasts.
MEM (a medium enriched in amino acids and vitamins, catalog no. 1-31F24-I) and Medium 199 (M199, catalog no. 1-21F22-I) with Earle's Balanced Salts, without phenol red, were purchased from Bioconcept. Fetal Calf Serum was obtained from PAA Laboratories. Basic fibroblast growth factor and epidermal growth factor were purchased from PeproTech. 2,3,5-trimethyl-6-(12-hydroxy-5,10-dodecadiynyl)-1,4-benzoquinone, penicillin-streptomycin-glutamine mix, L-buthionine (S,R)-sulfoximine, and insulin from bovine pancreas were purchased from Sigma. Calcein AM was purchased from Molecular Probes. […]

Take `CC1=C(C)C(=O)C(CCCCC#CCCCC#CCO)=C(C)C1=O` [2,3,5-trimethyl-6-(12-hydroxy-5,10-dodecadiynyl)-1,4-benzoquinone]: the EC50 in assay [1] was less than 100 nM; in assay [2], less than 100 nM; in assay [3] it was less than 50 nM; in assay [4], less than 100 nM.
